# Measured values taken from US7049490B2, “Gibberellin 3β-hydroxylase genes of rice and uses thereof” (priority 1999, dated 2006).
# Entries after “also recorded” stand apart in the source; their conditions may differ.
# Key:
# Os3β-2 fusion protein = target: T1, Os3β-2 fusion protein (Oryza sativa subsp. japonica, UniProt Q9FU53, G53R); assay: Enzymatic activity assay of purified recombinant Os3β-2 fusion protein with gibberellin substrates, products identified by GC-MS; assay type: biochemical, rice (Oryza sativa); settings: amylose-resin purified Os3β-2 fusion protein, cofactors ascorbate, ferrous iron, 2-ketoglutarate
# T1 construct: a full-length cDNA is synthesized by RT-PCR using primers provided with restriction enzyme sites and subcloned into multi-cloning sites of the pMAL-c2 expression vector; made in house; host or cells: E. coli JM109
# T1 sequence (Q9FU53 whole entry G53R, the tested form may be a part): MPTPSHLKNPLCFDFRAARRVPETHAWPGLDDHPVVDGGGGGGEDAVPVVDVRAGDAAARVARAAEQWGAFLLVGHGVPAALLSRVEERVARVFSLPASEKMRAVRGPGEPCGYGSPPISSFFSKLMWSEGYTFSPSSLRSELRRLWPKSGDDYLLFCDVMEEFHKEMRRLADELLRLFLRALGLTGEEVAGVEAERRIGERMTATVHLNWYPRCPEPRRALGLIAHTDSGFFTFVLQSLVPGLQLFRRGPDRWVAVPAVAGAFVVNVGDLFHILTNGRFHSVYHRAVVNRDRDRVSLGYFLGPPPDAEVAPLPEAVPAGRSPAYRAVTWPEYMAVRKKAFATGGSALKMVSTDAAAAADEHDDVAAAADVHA
# Experimental: (§1) cDNAs for the predicted protein-coding regions of the Os3β-1 and Os3β-2 genes were each inserted into the pMAL-c2 expression vector (New England Biolabs, Beverly, Mass.) in the sense orientation to obtain a fusion translation product. The constructs thus obtained, pMAL-Os3β-1 and pMAL-Os3β-2, were expressed in E. coli strain JM109. Bacterial cells were cultured by shaking in 2×YT medium containing 100 mg/L ampicillin at 37° C. overnight. Then, the culture was diluted 100-fold with a fresh 2×YT medium containing 100 mg/L ampicillin, and further cultured with shaking at 30° C. Four hours later, IPTG was added to the culture to a final concentration of 1 mM, and the mixture was incubated with shaking at 17° C. for further 18 h. After the completion of culturing, the bacterial cells were collected, washed with a washing buffer (containing 50 mM Tris-HCl (pH 8.0), 10% (w/v) glycerol, and 2 mM DTT), suspended in the washing buffer containing lysozyme (1 mg/ml), and allowed to stand for 30 min on ice.
# (§2) The cell lysate thus obtained was sonicated, centrifuged, and the supernatant was subjected to SDS-PAGE to confirm the expression of the fusion protein. For the assay of enzymatic activity of the Os3β-1 fusion protein, the supernatant was incubated with various gibberellins and cofactors (ascorbate, ferrous iron, and 2-ketoglutarate). For the activity assay of the Os3β-2 fusion protein, the supernatant was purified on a column of amylose resin according to the method described in the manual, and the purified protein thus obtained was similarly incubated as described above. Metabolized gibberellins were identified using GC-MS.
# Os3β-1 fusion protein = target: T2, Os3β-1 fusion protein (Oryza sativa subsp. japonica, UniProt Q6AT12, A27T/D23H/DEL15-17/DUP228-228); assay: Enzymatic activity assay of recombinant Os3β-1 fusion protein with gibberellin substrates, products identified by GC-MS; assay type: biochemical, rice (Oryza sativa); settings: E. coli supernatant with Os3β-1 fusion protein, cofactors ascorbate, ferrous iron, 2-ketoglutarate
# T2 construct: a full-length cDNA is synthesized by RT-PCR using primers provided with restriction enzyme sites and subcloned into multi-cloning sites of the pMAL-c2 expression vector; made in house; host or cells: E. coli JM109
# T2 sequence (Q6AT12 other isoform, or with tags, fused parts or gaps DEL15-17/D23H/A27T/DUP228-228): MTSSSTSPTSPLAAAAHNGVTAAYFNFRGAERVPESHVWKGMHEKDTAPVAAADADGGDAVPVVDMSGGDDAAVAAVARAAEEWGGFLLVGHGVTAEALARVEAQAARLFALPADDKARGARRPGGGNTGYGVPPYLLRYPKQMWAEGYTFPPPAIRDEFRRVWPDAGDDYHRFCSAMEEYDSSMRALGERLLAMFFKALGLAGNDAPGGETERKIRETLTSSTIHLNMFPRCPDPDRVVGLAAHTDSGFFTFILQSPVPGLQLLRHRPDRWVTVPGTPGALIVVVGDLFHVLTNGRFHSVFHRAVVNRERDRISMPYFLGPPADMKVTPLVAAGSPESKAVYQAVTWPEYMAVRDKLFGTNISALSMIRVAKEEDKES
# Experimental: as §1, §2
SMILES,Metabolized gibberellins (reaction products) from the substrate (Os3β-2 fusion protein),Metabolized gibberellins (reaction products) from the substrate (Os3β-1 fusion protein)
C=C1C[C@]23C[C@@]1(O)CC[C@H]2[C@@]12CC=C[C@@](C)(C(=O)O1)[C@H]2[C@@H]3C(=O)O [GA5],"produced the corresponding 3β-hydroxylated gibberellins (GA3, GA4, GA1, and GA38); also recorded: production of the corresponding 3β-hydroxylated gibberellins, GA3, GA4, GA1, and GA38, respectively","only the corresponding 3β-hydroxylated gibberellins (GA3 and GA88) were obtained; also recorded: produced the corresponding 3β-hydroxylated gibberellins, GA3 and GA88, respectively"
C=C1C[C@]23C[C@H]1CC[C@H]2[C@@]12CCC[C@@](C)(C(=O)O1)[C@H]2[C@@H]3C(=O)O [GA9],"produced the corresponding 3β-hydroxylated gibberellins (GA3, GA4, GA1, and GA38); also recorded: production of the corresponding 3β-hydroxylated gibberellins, GA3, GA4, GA1, and GA38, respectively","synthesis of GA4 (3β-hydroxylation), GA7 (2,3-unsaturation and 3β-hydroxylation), and GA34 (2β-hydroxylation) were confirmed; also recorded: catalyzed the production of GA4 (3β-hydroxylation), GA7 (2,3-unsaturation and 3β-hydroxylation), and GA34 (2β-hydroxylation)"
C=C1C[C@]23C[C@@]1(O)CC[C@H]2[C@@]12CCC[C@@](C)(C(=O)O1)[C@H]2[C@@H]3C(=O)O [GA20],"produced the corresponding 3β-hydroxylated gibberellins (GA3, GA4, GA1, and GA38); also recorded: production of the corresponding 3β-hydroxylated gibberellins, GA3, GA4, GA1, and GA38, respectively",
C=C1C[C@]23C[C@@]1(O)CC[C@H]2[C@@]12CCC[C@@](C)(C(=O)OC1)[C@H]2[C@@H]3C(=O)O [GA44],"produced the corresponding 3β-hydroxylated gibberellins (GA3, GA4, GA1, and GA38); also recorded: production of the corresponding 3β-hydroxylated gibberellins, GA3, GA4, GA1, and GA38, respectively","only the corresponding 3β-hydroxylated gibberellins (GA3 and GA88) were obtained; also recorded: produced the corresponding 3β-hydroxylated gibberellins, GA3 and GA88, respectively"
